Experimental findings from patent publication US20120041195A1, “Heterocyclic compounds” (FOVEA PHARMACEUTICALS, priority 2009, published 2012) are described below.

Data set [1] can be described thus: Solubility in aqueous medium (buffer pH 5). Conditions: acetic acid/KOH buffer pH 5, stirred 24 h at room temperature, HPLC/UV of supernatant. It is filed as physicochemical. Here is the method:
Solubility of Compounds was determined in aqueous medium using the following procedure.
Two mg of Compound (2 mg) was added to 200 μl buffer (acetic acid/KOH) solution at pH 5. Solution was then stirred for 24 h at room temperature and then centrifuged 10 min at 16,000 rpm. Corresponding supernatants were analyzed by HPLC and UV detection. Calculation of a given Compound concentration was performed by reporting area under the experimental slope onto a calibration slope obtained separately using DMSO-solubilised Compound at different concentrations.

A short description of a further data set: Colour of compound. Type of data set: physicochemical.
Data set [2] concerns VEGF-induced blood-retinal barrier breakdown. Description: Inhibition of vascular leakage in a rat model of blood-retinal barrier breakdown. Type of data set: in vivo. Conditions: intravitreal VEGF164 100 ng, 0.58% (5.8 mg/ml buffer pH 5) topical 10 μl six times over 27 h, Evans blue in retina. Here is the method:
We investigated the efficacy of topical administration of compound 5 of the invention in reducing the retinal leakage in a VEGF-induced blood-retinal barrier breakdown in the rat. Rats were treated by a single intravitreal injection of 5 μl (100 ng) recombinant rat VEGF164 (RD systems) into each eye.
During twenty-seven hours following VEGF injection, 0.58% test compound 5 of the invention (5.8 mg/ml buffer pH 5) and control without compound of the invention were administered six times by topical administration (10 μl) in eyes of sixteen rats.
Twenty-seven hours after the VEGF challenge, Evans blue dye (45 mg/kg) was injected intravenously and the dye was allowed to circulate during two hours.
Then, each rat was infused with 0.05M citrate buffer pH 3.5 (37° C.) for 2 minutes to allow clearance of the dye. Immediately after said perfusion, both eyes were enucleated and Evans blue dye was extracted by incubating each retina in formamide (Qaum et al Invest. Ophthalmol. Vis. Sci. 2001, Vol 42, No 10). Afterward, the absorbance was measured with a spectrophotometer at 620 nm.
Breakdown of the blood-retinal barrier was proportional to the concentration of Evans blue in the retina normalized by Evans blue concentrations in the plasma.

Turning to `Cl.Oc1ccc(Cl)c(-c2ccc3nc(Nc4ccc(OCCN5CCCC5)cc4)nn3c2)c1` [compound 5, 4-Chloro-3-{2-[4-(2-pyrrolidin-1-yl-ethoxy)-phenylamino]-[1,2,4]triazolo[1,5-a]pyridin-6-yl}-phenol, hydrochloride], in data set [1], the “Soiubility (pH 5) in mg/ml” value is reported as 5.4 mg/ml and the “Solubility (pH 5) in %” value was 0.3%. Also, the Colour entry in the data set “Colour of compound” is “Colourless”. Also, in data set [2], the “reduction of vascular leakage compared to control” value is on record as 71%.

As to `CN(C)[C@@H]1CCN(C(=O)COc2ccc(Nc3nc4ccc(-c5cc(O)ccc5Cl)cn4n3)cc2)C1.Cl` [compound 6, 2-{4-[6-(2-Chloro-5-hydroxy-phenyl)-[1,2,4]triazolo[1,5-a]pyridin-2-ylamino]-phenoxy}-1-((R)-3-dimethylamino-pyrrolidin-1-yl)-ethanone, hydrochloride], in data set [1], the “Soiubility (pH 5) in mg/ml” value stood at 0.9 mg/ml and the “Solubility (pH 5) in %” value was found to be 0.1%. Moreover, in “Colour of compound”, the Colour result is recorded as “Colourless”.

For `O=C1N(CCN2CCCC2)CCN1c1ccc(Nc2nc3ccc(-c4cc(O)ccc4Cl)cn3n2)cc1` [compound 7, 1-{4-[6-(2-Chloro-5-hydroxy-phenyl)-[1,2,4]triazolo[1,5-a]pyridin-2-ylamino]-phenyl}-3-(2-pyrrolidin-1-yl-ethyl)-imidazolidin-2-one], in data set [1], the “Soiubility (pH 5) in mg/ml” value worked out at 0.22 mg/ml and the “Solubility (pH 5) in %” value is 0.022%. In addition, the Colour result in “Colour of compound” is listed as “Colourless”.

With `Cc1cc(-c2cc(O)ccc2Cl)cn2nc(Nc3ccc(OCCN4CCCC4)cc3)nc12.Cl` [compound 9, 4-Chloro-3-{8-methyl-2-[4-(2-pyrrolidin-1-yl-ethoxy)-phenylamino]-[1,2,4]triazolo[1,5-a]pyridin-6-yl}-phenol, hydrochloride], in data set [1], the “Soiubility (pH 5) in mg/ml” value was 1 mg/ml and the “Solubility (pH 5) in %” value was found to be 0.1%. In addition, in “Colour of compound”, the Colour entry was “Colourless”.

Regarding `Cl.Oc1ccc(Cl)c(-c2ccn3nc(Nc4ccc(OCCN5CCCC5)cc4)nc3c2)c1` [compound 10, 4-Chloro-3-{2-[4-(2-pyrrolidin-1-yl-ethoxy)-phenylamino]-[1,2,4]triazolo[1,5-a]pyridin-7-yl}-phenol, hydrochloride], in data set [1], the “Soiubility (pH 5) in mg/ml” value is listed as 2 mg/ml and the “Solubility (pH 5) in %” value is reported as 0.2%. In the data set “Colour of compound”, the Colour result was “Colourless”.

`Oc1ccc(Cl)c(-c2ccc3nc(Nc4cccc(OCCN5CCOCC5)c4)nn3c2)c1` [compound 12, 4-Chloro-3-{2-[3-(2-morpholin-4-yl-ethoxy)-phenylamino]-[1,2,4]triazolo[1,5-a]pyridin-6-yl}-phenol]: in data set [1], the “Soiubility (pH 5) in mg/ml” value turned out to be 0.2 mg/ml and the “Solubility (pH 5) in %” value amounted to 0.02%. Besides, the Colour result in the data set “Colour of compound” is “Colourless”.

With `CN(C)CCOc1ccc(Nc2nc3ccc(-c4cc(O)ccc4Cl)cn3n2)cc1` [compound 14, 4-Chloro-3-{2-[4-(2-dimethylamino-ethoxy)-phenylamino]-[1,2,4]triazolo[1,5-a]pyridin-6-yl}-phenol], in data set [1], the “Soiubility (pH 5) in mg/ml” value is listed as over 10 mg/ml and the “Solubility (pH 5) in %” value is over 1%. Also, the Colour result in the data set “Colour of compound” is listed as “Colourless”.

With `CN(C)CCOc1cccc(Nc2nc3ccc(-c4cc(O)ccc4Cl)cn3n2)c1` [compound 15, 4-Chloro-3-{2-[3-(2-dimethylamino-ethoxy)-phenylamino]-[1,2,4]triazolo[1,5-a]pyridin-6-yl}-phenol], in data set [1], the “Soiubility (pH 5) in mg/ml” value is listed as 0.7 mg/ml and the “Solubility (pH 5) in %” value is 0.07%. Further, in “Colour of compound”, the Colour entry is “Colourless”.

As for `Oc1ccc(Cl)c(-c2ccc3nc(Nc4cccc(OCCN5CCCC5)c4)nn3c2)c1` [compound 16, 4-Chloro-3-{2-[3-(2-pyrrolidin-1-yl-ethoxy)-phenylamino]-[1,2,4]triazolo[1,5-a]pyridin-6-yl}-phenol], in data set [1], the “Soiubility (pH 5) in mg/ml” value worked out at 0.1 mg/ml and the “Solubility (pH 5) in %” value is 0.01%. Moreover, the Colour entry in the data set “Colour of compound” is listed as “Colourless”.
